Reference: publication PMC11470957, “Principles of paralog-specific targeted protein degradation engaging the C-degron E3 KLHDC2” (Nature Communications, 2024)
“And” between values parts separate entries of the source, which are not always exact repeats. Equal entries are not always repeated. Where two headings read alike, the source gives them in different places.

Key:
BRD3 = BRD3 (Homo sapiens, UniProt Q15059); assay: Western blot of BRD3 levels after cellular dosing; details: for DC50: read-out: BRD3 DC50
Sequence of BRD3 (Q15059 whole entry): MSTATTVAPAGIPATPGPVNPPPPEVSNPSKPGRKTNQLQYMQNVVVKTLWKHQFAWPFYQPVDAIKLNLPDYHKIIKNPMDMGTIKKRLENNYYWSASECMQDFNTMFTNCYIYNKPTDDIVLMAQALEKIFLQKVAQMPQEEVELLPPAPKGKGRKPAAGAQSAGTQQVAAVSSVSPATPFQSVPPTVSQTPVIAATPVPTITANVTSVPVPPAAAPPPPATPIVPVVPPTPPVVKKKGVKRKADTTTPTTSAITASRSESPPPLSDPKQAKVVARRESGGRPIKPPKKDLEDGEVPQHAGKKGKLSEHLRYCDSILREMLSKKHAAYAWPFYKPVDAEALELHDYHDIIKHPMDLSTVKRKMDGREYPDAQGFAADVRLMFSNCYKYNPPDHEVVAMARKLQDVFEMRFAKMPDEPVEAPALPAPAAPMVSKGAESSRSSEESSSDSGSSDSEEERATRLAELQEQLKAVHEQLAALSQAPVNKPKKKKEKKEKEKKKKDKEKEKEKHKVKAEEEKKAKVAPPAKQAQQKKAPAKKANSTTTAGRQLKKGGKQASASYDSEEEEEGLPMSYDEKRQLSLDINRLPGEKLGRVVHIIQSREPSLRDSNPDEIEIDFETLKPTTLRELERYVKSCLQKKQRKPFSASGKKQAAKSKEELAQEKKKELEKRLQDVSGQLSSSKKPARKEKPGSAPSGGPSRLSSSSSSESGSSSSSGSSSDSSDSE

KLHDC2 = target: T1, KLHDC2 (Homo sapiens, UniProt Q9Y2U9); assay: Western blot of KLHDC2 levels after cellular dosing
T1 sequence (Q9Y2U9 1-406): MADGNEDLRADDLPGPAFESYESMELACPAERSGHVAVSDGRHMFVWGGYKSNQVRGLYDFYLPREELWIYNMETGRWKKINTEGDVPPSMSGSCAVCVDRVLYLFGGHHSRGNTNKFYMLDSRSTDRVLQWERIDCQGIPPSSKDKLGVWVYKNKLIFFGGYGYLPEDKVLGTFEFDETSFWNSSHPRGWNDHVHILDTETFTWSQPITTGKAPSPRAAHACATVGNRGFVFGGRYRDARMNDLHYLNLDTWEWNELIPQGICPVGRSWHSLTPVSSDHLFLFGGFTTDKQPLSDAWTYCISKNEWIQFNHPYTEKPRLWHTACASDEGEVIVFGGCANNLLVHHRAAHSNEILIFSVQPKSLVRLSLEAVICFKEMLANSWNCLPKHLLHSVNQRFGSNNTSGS

[1] = U2OS, read-out: BRD3 level, Western blot quantification (DMSO = 100), Fig S6d, U2OS KO/rescue Dose Response
[2] = read-out: BRD3 level, Western blot quantification (DMSO = 100), Fig S6e, PC3 KO/rescue Dose Response

## COC(=O)CNC(=O)Cc1csc(-c2ccc3cccc(OCCN4CCN(C(=O)C[C@@H]5N=C(c6ccc(Cl)cc6)c6c(sc(C)c6C)-n6c(C)nnc65)CC4)c3c2)n1 [SJ46420]
BRD3; U2OS, read-out: BRD3 level, Western blot quantification (DMSO = 100), Fig S6d, U2OS KO/rescue Dose Response, 0.156 uM
  remaining activity at 0.156 µM: 108%
BRD3; U2OS, read-out: BRD3 level, Western blot quantification (DMSO = 100), Fig S6d, U2OS KO/rescue Dose Response, 0.313 uM
  remaining activity at 0.313 µM: 70.7%
BRD3; [1]
  remaining activity at 0.625 µM: 29.3%
  remaining activity at 1.25 µM: 11.3%
  remaining activity at 2.5 µM: 5.44%
BRD3; from time-course of BRD3 levels between 8 h and 24 h
  stability in cells: relatively unstable
BRD3; 22Rv1, 24 h dose
  DC50: 458 nM
BRD3; PC3, 24 h dose
  DC50: 487 nM
BRD3; read-out: BRD3 Dmax, PC3, 24 h dose
  Dmax: 99.9%
BRD3; read-out: BRD3 level, Western blot quantification (DMSO = 100), Fig 6b, KO/Rescue
  remaining activity at 5 µM: 105%
BRD3; read-out: BRD3 level, Western blot quantification (DMSO = 100), Fig 6c, 1 uM
  remaining activity at 1 µM: 43.9%
BRD3; read-out: BRD3 level, Western blot quantification (DMSO = 100), Fig 6d, 1 uM
  remaining activity at 1 µM: 19%
BRD3; read-out: BRD3 level, Western blot quantification (DMSO = 100), Fig 6d, 1uM together with 1uM MLN4924
  remaining activity at 1 µM: 120%
BRD3; [2]
  remaining activity at 0.625 µM: 47.6%
  remaining activity at 1.25 µM: 11.4%
  remaining activity at 2.5 µM: 0.66%
  remaining activity at 5 µM: 0.34%
BRD3; read-out: BRD3 level, Western blot quantification (DMSO = 100), Fig S6e, PC3 KO/rescue Dose Response, 10uM
  remaining activity at 10 µM: 0.161%
BRD3; wild-type U2OS, 24 h dose, Fig 6b
  BRD degradation activity in U2OS cells: efficiently and selectively targeted BRD3 for degradation
KLHDC2; 22Rv1, 0.16µM, 24 h, Fig S6f
  KLHDC2 level relative to DMSO (100%): 167 +/- 17%
KLHDC2; 22Rv1, 0.31µM, 24 h, Fig S6f
  KLHDC2 level relative to DMSO (100%): 171 +/- 10%
KLHDC2; 22Rv1, 0.63µM, 24 h, Fig S6f
  KLHDC2 level relative to DMSO (100%): 179 +/- 13%
KLHDC2; 22Rv1, 1.3µM, 24 h, Fig S6f
  KLHDC2 level relative to DMSO (100%): 199 +/- 27%
KLHDC2; 22Rv1, 2.5µM, 24 h, Fig S6f
  KLHDC2 level relative to DMSO (100%): 170 +/- 35%
KLHDC2; 22Rv1, 5µM, 24 h, Fig S6f
  KLHDC2 level relative to DMSO (100%): 238 +/- 26%
KLHDC2; 22Rv1, 10µM, 24 h, Fig S6f
  KLHDC2 level relative to DMSO (100%): 356 +/- 37%
KLHDC2; 293T, 2.5µM, 24 h, Fig S6a
  KLHDC2 level relative to DMSO (100%): 130 +/- 3.8%
KLHDC2; 293T, 5µM, 24 h, Fig S6a
  KLHDC2 level relative to DMSO (100%): 132 +/- 4.4%
KLHDC2; AU565, 0.2µM, 8 h, Fig S6c
  KLHDC2 level relative to DMSO (100%): 96 +/- 4.5%
KLHDC2; AU565, 1µM, 8 h, Fig S6c
  KLHDC2 level relative to DMSO (100%): 102 +/- 8.6%
KLHDC2; AU565, 5µM, 8 h, Fig S6c
  KLHDC2 level relative to DMSO (100%): 104 +/- 6.7%
KLHDC2; Fig 6b, KO/Rescue, 5 uM, DMSO printed 0
  KLHDC2 level, Western blot quantification: 0
KLHDC2; Fig 6b, U2OS, 5 uM
  KLHDC2 level, Western blot quantification (DMSO = 100): 114.478 and 116.145
KLHDC2; Fig 6c, 1 uM
  KLHDC2 level, Western blot quantification (DMSO = 100): 373.51 and 441.349
KLHDC2; Fig 6d, 1 uM
  KLHDC2 level, Western blot quantification (DMSO = 100): 1598.67 and 1321.11
KLHDC2; Fig 6d, 1uM together with 1uM MLN4924
  KLHDC2 level, Western blot quantification (DMSO = 100): 4337 and 4000.23
KLHDC2; Fig S6a, 293T cells, 2.5 uM
  KLHDC2 level, Western blot quantification (DMSO = 100): 127.565 and 133
KLHDC2; Fig S6a, 293T cells, 5 uM
  KLHDC2 level, Western blot quantification (DMSO = 100): 128.652 and 135
KLHDC2; Fig S6b, MDA-MB468 Cells, 2 uM
  KLHDC2 level, Western blot quantification (DMSO = 100): 157.366 and 160
KLHDC2; Fig S6b, MDA-MB468 Cells, 5 uM
  KLHDC2 level, Western blot quantification (DMSO = 100): 170.896 and 175
KLHDC2; Fig S6b, MDA-MB468 Cells, 10 uM
  KLHDC2 level, Western blot quantification (DMSO = 100): 190.223 and 200
KLHDC2; Fig S6c, AU565 Cells, 0.2 uM
  KLHDC2 level, Western blot quantification (DMSO = 100): 94.0454 and 99.4615
KLHDC2; Fig S6c, AU565 Cells, 1 uM
  KLHDC2 level, Western blot quantification (DMSO = 100): 108.13 and 96.9184
KLHDC2; Fig S6c, AU565 Cells, 5 uM
  KLHDC2 level, Western blot quantification (DMSO = 100): 108.427 and 99.9384
KLHDC2; Fig S6f, 22RV1 KO/rescue Dose Response, 0.156 uM
  KLHDC2 level, Western blot quantification (DMSO = 100): 180 and 155
KLHDC2; Fig S6f, 22RV1 KO/rescue Dose Response, 0.313 uM
  KLHDC2 level, Western blot quantification (DMSO = 100): 178 and 164
KLHDC2; Fig S6f, 22RV1 KO/rescue Dose Response, 0.625 uM
  KLHDC2 level, Western blot quantification (DMSO = 100): 188 and 170
KLHDC2; Fig S6f, 22RV1 KO/rescue Dose Response, 1.25 uM
  KLHDC2 level, Western blot quantification (DMSO = 100): 219 and 180
KLHDC2; Fig S6f, 22RV1 KO/rescue Dose Response, 2.5 uM
  KLHDC2 level, Western blot quantification (DMSO = 100): 149 and 192
KLHDC2; Fig S6f, 22RV1 KO/rescue Dose Response, 5 uM
  KLHDC2 level, Western blot quantification (DMSO = 100): 256 and 220
